For one data set, the target named is T1, cerebral H1 receptor (Mus musculus, UniProt P70174).
T1 construct: the entire brain, except for cerebellum and medulla oblongatae, was rapidly excised; from tissue; host or cells: brain homogenate (without cerebellum and medulla oblongata) of orally dosed ICR male mice
The data set can be described thus: Murine cerebral H1 receptor occupying content (ex vivo). Type of data set: in vivo. Conditions: for ED50: ICR male mouse, oral administration, brain excised after 1 hour, 3H-pyrilamine binding in brain homogenate, larger = lower brain transfer, read-out: ID50 (the source's name); for ID50 (mg/kg)/ ED50 (mg/kg): ID50 of cerebral receptor binding test (Table 20) divided by ED50 of vascular hyperpermeability test (Table 19).

For data set [1], the target named is human histamine H1 receptor (Homo sapiens, UniProt P35367). The data set can be described thus: In vitro human histamine H1 receptor binding experiment ([3H]pyrilamine). Conditions: HEK293A cells stably expressing human histamine H1 receptor, [3H]pyrilamine 3 nmol/L, room temperature 60 minutes. The method in brief:
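HEK293A cells stably expressing human H1 receptor (3×10^5 cells/well) incubated 60 min at room temperature with test substance and 3 nmol/L [3H]pyrilamine in 50 mmol/L Tris-HCl pH 7.5, 0.1% BSA. Filtration and scintillation counting; nonspecific binding with 30 μmol/L pyrilamine.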

The subject of data set [2] is histamine-induced vascular hyperpermeability reaction. The data set can be described thus: Rat histamine-induced vascular hyperpermeability reaction (in vivo antihistamine action). Conditions: SD male rat, oral administration 1 hour before intracutaneous histamine, leaked Evans Blue pigment.

Each structure is given as a SMILES string.

T1 sequence (P70174 whole entry): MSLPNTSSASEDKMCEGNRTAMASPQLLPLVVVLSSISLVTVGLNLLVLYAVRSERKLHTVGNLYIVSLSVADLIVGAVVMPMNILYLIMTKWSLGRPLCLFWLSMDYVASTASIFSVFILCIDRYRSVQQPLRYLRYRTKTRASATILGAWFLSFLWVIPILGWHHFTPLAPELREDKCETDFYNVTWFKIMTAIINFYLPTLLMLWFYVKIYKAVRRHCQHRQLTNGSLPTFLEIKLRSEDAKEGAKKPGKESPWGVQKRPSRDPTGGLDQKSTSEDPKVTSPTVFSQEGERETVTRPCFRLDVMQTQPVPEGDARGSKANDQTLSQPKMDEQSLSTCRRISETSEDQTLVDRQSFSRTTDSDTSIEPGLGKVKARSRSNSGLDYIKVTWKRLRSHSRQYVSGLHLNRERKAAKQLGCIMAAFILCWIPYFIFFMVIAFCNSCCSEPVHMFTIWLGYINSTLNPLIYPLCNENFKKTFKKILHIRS
Sequence of human histamine H1 receptor (P35367 whole entry): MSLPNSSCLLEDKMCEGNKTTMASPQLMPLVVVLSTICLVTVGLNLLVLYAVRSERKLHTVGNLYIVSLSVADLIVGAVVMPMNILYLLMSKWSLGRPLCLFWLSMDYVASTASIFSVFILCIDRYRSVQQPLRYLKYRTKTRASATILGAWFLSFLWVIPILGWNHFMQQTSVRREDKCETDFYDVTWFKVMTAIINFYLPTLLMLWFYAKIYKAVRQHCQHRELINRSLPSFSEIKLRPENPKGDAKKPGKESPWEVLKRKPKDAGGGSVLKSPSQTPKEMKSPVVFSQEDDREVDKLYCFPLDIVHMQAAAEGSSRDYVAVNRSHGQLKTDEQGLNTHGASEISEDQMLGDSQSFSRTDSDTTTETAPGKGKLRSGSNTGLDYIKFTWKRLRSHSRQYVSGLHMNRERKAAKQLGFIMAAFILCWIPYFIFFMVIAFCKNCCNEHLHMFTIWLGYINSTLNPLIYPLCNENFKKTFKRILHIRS

Take `CN1CCC(=C2c3ccccc3CCc3sc(Br)cc32)CC1` [Compound 212, 4-(2-Bromo-9,10-dihydro-1-thiabenzo[f]azulen-4-ylidene)-1-methylpiperidine]: the melting point (commonly the temperature of the solid-liquid transition) was in the range of 141 to 142 °C.

As for `CN1CCC(=C2c3cc(CC(=O)O)ccc3CCc3sccc32)CC1` [Compound 151, [4-(1-Methylpiperidin-4-ylidene)-9,10-dihydro-4H-1-thiabenzo[f]azulen-6-yl]acetic acid], at cerebral H1 receptor, the ED50 came out at 6.36 mg/kg and the “ID50 (mg/kg)/ ED50 (mg/kg)” value is over 63.6. Also, the IC50 (commonly the concentration that inhibits the measured activity by half) in data set [1] stood at 93.6 nM. In data set [2], the ED50 is under 0.1 mg/kg.

With `COC(=O)Cc1ccc2c(c1)C(=C1CCN(CCSC)CC1)c1sccc1CO2.Cl` [Compound 200, Methyl {4-[1-(2-methylsulfanylethyl)piperidin-4-ylidene]-4,10-dihydro-9-oxa-3-thiabenzo[f]azulen-6-yl}acetate hydrochloride], on cerebral H1 receptor, the ED50 amounted to 53.4 mg/kg and the “ID50 (mg/kg)/ ED50 (mg/kg)” value was 178.0. The compound further came in with an IC50 in data set [1] of 7.83 nM. The compound also returned an ED50 in data set [2] of about 0.3 mg/kg.

Regarding `CCN1CCC(=C2c3cc(CC(=O)OC)ccc3OCc3ccsc32)CC1.Cl` [Compound 127, Methyl[4-(1-ethylpiperidin-4-ylidene)-4,10-dihydro-9-oxa-3-thiabenzo[f]azulen-6-yl]acetate hydrochloride], at cerebral H1 receptor, the ED50 came to 9.84 mg/kg and the “ID50 (mg/kg)/ ED50 (mg/kg)” value was determined as 98.4. The same compound came in with an IC50 in data set [1] of 8.2 nM. The compound also came in with an ED50 in data set [2] of about 0.1 mg/kg.
